Here are results for 16 compounds from patent publication US7601713B2, “Kinase inhibitors and their uses” (Rigel Pharmaceuticals, Inc., priority 2005, dated 2009).

Where two headings read alike, the source gives them in different places.

Assay [1] concerns JAK kinases (JAK1 and JAK3). Briefly: JAK inhibition: IL-4-stimulated CD23 upregulation in human Ramos B-cells, FACS. It counts as cell-based. As to conditions: IL-4 stimulated Ramos B-cells, read-out: IC50, inhibition of JAK kinases in cellular assay. The protocol: JAK inhibition was tested in human Ramos B-cells activated with IL-4. Twenty to 24 hours post stimulation, the cells are stained for upregulation of CD23 and analyzed by FACS. Stimulation of the B-cells with IL-4 leads to the activation of the JAK/STAT pathway through phosphorylation of the JAK kinase JAK1 and JAK3, which in turn phosphorylate and activate transcription of factor […].
For the assay, human Ramos B-cells (ATCC, Catalog No. CRL-1596) are cultured in RPMI 1640 medium (Cellgro, Catalog No. 10-040-CM) containing 10% fetal bovine serum (JRH, Catalog No. 12106-500M) according to the propagation protocol supplied with the cells, and maintained at a density of approximately 3.5×10^5 cells/ml. The day before the assay, the cells are diluted to 3.5×10^5 cells/ml to insure they are in the logarithmic growth phase. The cells are spun down, and suspended in RPMI 1640 medium containing 5% fetal bovine serum to a density of 3.5×10^4 cells/ml and aliquots dispensed into a 96-well tissue culture plate. Cells are incubated with test compound (dissolved in DMSO) or DMSO (control) for 1 hr at 37° C. and then stimulated with IL-4 (Pepotech, Catalog No. 200-04) for 20-24 hours (final concentration is 50 Units/ml). Cells are then spun down, stained with anti-CD23-PE antibody (BD Pharmigen, Catalog No. 555711) and analyzed by FACS.

A further assay has as its target Syk kinase (Homo sapiens, UniProt P43405). Briefly: cell-based Syk assay. The settings on record: read-out: IC50, inhibition of Syk kinase.
In the next assay the target is T1, Axl kinase (Homo sapiens, UniProt P30530).
T1 construct: endogenous in cells; host or cells: HeLa cells
T1 sequence (P30530 26-894): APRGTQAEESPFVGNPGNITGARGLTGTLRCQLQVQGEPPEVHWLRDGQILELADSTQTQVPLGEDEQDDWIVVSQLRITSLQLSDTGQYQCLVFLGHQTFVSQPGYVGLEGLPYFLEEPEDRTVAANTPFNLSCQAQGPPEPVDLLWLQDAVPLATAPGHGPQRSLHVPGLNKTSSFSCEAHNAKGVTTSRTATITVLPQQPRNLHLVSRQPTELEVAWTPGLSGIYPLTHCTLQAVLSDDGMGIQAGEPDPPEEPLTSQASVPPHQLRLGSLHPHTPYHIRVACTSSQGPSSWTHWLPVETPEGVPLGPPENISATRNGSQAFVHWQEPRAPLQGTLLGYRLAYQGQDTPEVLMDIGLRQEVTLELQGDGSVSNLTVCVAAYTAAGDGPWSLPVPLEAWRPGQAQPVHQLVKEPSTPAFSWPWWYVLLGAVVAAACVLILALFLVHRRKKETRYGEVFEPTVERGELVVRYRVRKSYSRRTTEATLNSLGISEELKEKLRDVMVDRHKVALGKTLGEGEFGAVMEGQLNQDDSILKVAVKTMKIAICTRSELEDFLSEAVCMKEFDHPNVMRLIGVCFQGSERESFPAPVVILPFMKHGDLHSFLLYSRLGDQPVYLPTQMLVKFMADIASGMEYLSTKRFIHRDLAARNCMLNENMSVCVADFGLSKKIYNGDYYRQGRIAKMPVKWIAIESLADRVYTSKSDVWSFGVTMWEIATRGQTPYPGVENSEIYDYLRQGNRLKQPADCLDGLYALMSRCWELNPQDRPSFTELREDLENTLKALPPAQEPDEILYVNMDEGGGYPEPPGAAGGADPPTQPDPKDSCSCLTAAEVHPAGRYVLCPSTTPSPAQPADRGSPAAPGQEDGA
Put plainly: Phospho-Akt in-cell Western assay (Axl antibody cross-linking, Hela cells). It is filed as cell-based. The settings on record: phospho-Akt readout, read-out: IC50, inhibition of Axl kinase. The protocol: The compounds of the invention were tested in the following assay for their ability to inhibit Axl activity.
Phospho-Akt in-Cell Western Assay
Starvation medium: For Axl stimulation: 0.5% FCS (fetal calf serum) in DMEM, plus Axl/Fc (extracellular domain of AXL fused to immunoglobulin Fc region) (R&D, 154-AL) 500 ng/mL.
Axl antibody cross-linking: • 1st: Mouse anti-Axl (R&D, MAB 154). • 2nd: Biotin-SP-conjugated AffiniPure goat anti-mouse IgG (H+L) (Jackson ImmunoResearch #115-065-003).
Primary antibody: Rabbit anti-human Phospho-Akt antibody (Cell Signaling 9271): 1×250 diluted in blocking buffer.
Secondary antibody: HRP (horse radish peroxidase)-conjugated Goat anti-Rabbit secondary, stock solution: Jackson lmmunoResearch (Goat anti-Rabbit HRP, #111-035-144) 1:1 diluted in glycerol, store at −20° C. The working solution: 1×2000 dilution of stock in blocking buffer.
A 96 well TC (tissue culture treated) plate was coated with 10 μg/mL poly-L-Lysine at 37° C. for 30 min, washed twice with PBS, and air-dried for 5 minutes before cells were added. Hela cells were seeded at 10,000 cells/well and the cells were starved in 100 μL starvation medium containing Axl/Fc for 24 hrs.
The cells were pre-treated with test compounds by adding 100 μL of 2× test compound to the starvation medium on the cells. The cells were incubated at 37° C. for 1 hr before stimulation.
The cells were stimulated by Axl-antibody cross-linking as follows: A 5× 1st/2nd Axl antibody mixture was made (37.5 μg/mL 1st/100 μg/mL 2nd) in starvation medium and nutated at 4° C. with thorough mixing for 1-2 hours for clustering. The resulting mix was warmed to 37° C. 50 μL of 5× Axl 1st/2nd of antibody cluster was added to the cells and the cells were incubated at 37° C. for 5 min.
After 5 minutes stimulation, the plate was flicked to remove medium and the plate was tapped onto paper towels. Formaldehyde (4.0% in PBS, 100 μL) was added to fix the cells and the cells were incubated at ambient temperature for 20 min without shaking.
The cells were washed with a plate washer buffer to remove the formaldehyde solution. The plate was flicked to remove excess wash buffer and tapped onto paper towels. Quenching buffer (100 μL) was added to each well and the cells were incubated at ambient temperature for 20 minutes without shaking.
The cells were washed with a plate washer buffer to remove the quenching buffer. Blocking buffer (100 μL) was added and the cells were incubated at ambient temperature for at least an hour with gentle shaking.
The cells were washed with a plate washer buffer and diluted primary antibody (50 μL) was added to each well (blocking buffer was added to the negative control wells instead). The plates were incubated overnight at 4° C. with gentle shaking.
The wash buffer was removed, diluted secondary antibody (100 μL) was added, and the cells were incubated at ambient temperature for 1 hour with gentle shaking. During the incubation, the chemiluminescent reagent was brought to ambient temperature.
The secondary antibody was removed by washing the cells 1× with wash buffer, 1× with PBS by plate washer. The PBS was removed from the plate and the chemiluminescent reagent (80 μL: 40 μL A and 40 μL B) was added to each well at ambient temperature.
The resulting chemiluminescence was read with a Luminomitor within 10 minutes to minimize changes in signal intensity. After reading the chemiluminescence, the cells were washed 1× with wash buffer and 1× with PBS by plate washer. The plate was tapped onto paper towels to remove excess liquid from wells and air-dried at ambient temperature for 5 minutes.
Crystal Violet working solution (60 μL) was added to each well and the cells were incubated at ambient temperature for 30 min. The crystal violet solution was removed, and the wells were rinsed with PBS, then washed 3× with PBS (200 μL) for 5 minutes each.
5% SDS solution (70 μL) was added to each well and the cells were incubated on a shaker for 30 min at ambient temperature. […]

Another assay relates to tumor cell lines. As to conditions: cited from earlier work.

Regarding `CC(C)Oc1cccc(Nc2nc(NC3C4C=CC(C4)C3C(=O)N(C)C)c3nc[nH]c3n2)c1` (racemic) [Compound 140], the values for the IC50 (in assay [1]; at Syk kinase) were below 5 µM and above 10 µM, respectively.

As for `Cc1cccc(Nc2nc(NC3C4C=CC(C4)C3C(=O)N(C)C)c3nc[nH]c3n2)c1` (racemic) [Compound 141], the IC50 in assay [1] was below 5 µM; at Syk kinase it was below 10 µM.

Consider `COc1cccc(Nc2nc(NC3C4C=CC(C4)C3C(=O)N(C)C)c3nc[nH]c3n2)c1` (racemic) [Compound 142], for which the results for the IC50 (in assay [1]; at Syk kinase) were above 10 µM and below 10 µM, respectively.

With `CSc1cccc(Nc2nc(NC3C4C=CC(C4)C3C(=O)N(C)C)c3nc[nH]c3n2)c1` (racemic) [Compound 143], the IC50 in assay [1] was below 5 µM; at Syk kinase, below 10 µM.

`CN(C)C(=O)C1C2C=CC(C2)C1Nc1nc(Nc2cccc(S(N)(=O)=O)c2)nc2[nH]cnc12` (racemic) [Compound 144]: the figures for the IC50 (in assay [1]; on Syk kinase) were below 5 µM and below 10 µM, respectively.

On to `CN(C)C(=O)C1C2C=CC(C2)C1Nc1nc(Nc2ccc(N3CCCCC3)cc2)nc2[nH]cnc12` (racemic) [Compound 145], for which the IC50 in assay [1] was below 5 µM; on Syk kinase, below 10 µM.

For the compound `CN(C)C(=O)C1C2C=CC(C2)C1Nc1nc(Nc2ccc(Cc3ccncc3)cc2)nc2[nH]cnc12` (racemic) [Compound 146], the IC50 in assay [1] is below 5 µM; on Syk kinase, below 10 µM.

For `NC(=O)C1C2CC(C1Nc1nc(Nc3ccc(N4CCOCC4)cc3)nc3[nH]ccc13)C1ON=C(c3ccccc3)C21` (racemic) [Compound 219, Racemic-(5-exo,6-exo)-N4-(4,7-methano-1,2-benzisoxazol-3a,4,5,6,7,7a-hexahydro-3-phenyl-5-aminocarbonyl-6-yl)-N2-[4-(4-morpholinyl)phenyl]-1H-pyrrolo[2,3-d]pyrimidine-2,4-diamine], the IC50 was below 10 µM in assay [1], above 10 µM at Axl kinase and above 10 µM on Syk kinase.

For the compound `CONC(=O)Cc1cccc(Nc2nc(NC3C4C=CC(C4)C3C(N)=O)c3nc[nH]c3n2)c1` (racemic) [Compound 230, Racemic-(2-exo,3-exo-)-N6-(3-aminocarbonylbicyclo [2.2.1]hept-5-en-2-yl)-N2-[3-(N-methoxy)-aminocarbonyl-methylphenyl]-1H-purine-2,6-diamine], the IC50 on Axl kinase is above 10 µM; on Syk kinase it was below 5 µM.

For the compound `COc1cccc(Nc2nc(NC3C4CCC(C4)C3C(=O)NN)c3cc[nH]c3n2)c1` (racemic) [Compound 231, Racemic-(2-exo,3-exo)-N4-(3-hydrazidebicyclo[2.2. 1]hept-2-yl)-N2-(3-methoxyphenyl)-1H-pyrrolo[2,3-d]pyrimidine-2,4-diamine], the results for the IC50 (in assay [1]; at Axl kinase; at Syk kinase) were below 5 µM, below 10 µM and below 5 µM, respectively.

For the compound `COc1ccc(Nc2nc(NC3C4C=CC(C4)C3C(N)=O)c3scc(C)c3n2)cc1` (racemic) [Compound 237, Racemic-(2-exo,3-exo-)-7-methyl-N4-(3-aminocarbonylbicyclo [2.2.1]hept-5-en-2-yl)-N2-[4-methoxyphenyl]-thieno[3,2-d]pyrimidine-2,4-diamine], the figures for the IC50 (in assay [1]; on Axl kinase; at Syk kinase) were below 5 µM, above 10 µM and above 10 µM, respectively.

Consider `COc1cc(Nc2nc(NC3C4C=CC(C4)C3C(N)=O)c3scc(C)c3n2)cc(OC)c1OC` (racemic) [Compound 238], for which the IC50 is below 5 µM in assay [1], above 10 µM at Axl kinase and above 10 µM at Syk kinase.

Take `Cc1csc2c(NC3C4C=CC(C4)C3C(N)=O)nc(Nc3ccc4[nH]ccc4c3)nc12` (racemic) [Compound 239, Racemic-(2-exo,3-aminocarbonylbicyclo [2.2.1]hept-5-en-2-yl)-N2-[1H-indol-5-yl]-thieno[3,2-d]pyrimidine-2,4-diamine]: the IC50 in assay [1] is below 5 µM; on Axl kinase, above 10 µM; on Syk kinase, below 5 µM.

For `Cc1cc(Nc2ncc(F)c(NC3C4C=CC(C4)C3C(N)=O)n2)ccc1N1CCN(C)CC1` (racemic) [cis exo-exo racemate, N4-(3-aminocarbonylbicyclo [2.2.1]hept-5-en-2-yl)-5-fluoro-N2-[3-methyl-4-(4-methylpiperazin-1-yl)phenyl]-2,4-pyrimidinediamine], in the assay with tumor cell lines (all cell lines tested), the “potency of exo-exo racemate relative to endo-endo racemate” value is recorded as “approximately twenty-fold”. Besides, the “antiproliferative activity against tumor cell types” value in the assay on tumor cell lines (in vitro assays, variety of tumor cell lines) is listed as “exhibit antiproliferative activity”.

Take `Cc1cc(Nc2ncc(F)c(NC3C4C=CC(C4)C3C(N)=O)n2)ccc1N1CCN(C)CC1` [(1S,2S,3R,4R) diastereomer, N4-(3-aminocarbonylbicyclo [2.2.1]hept-5-en-2-yl)-5-fluoro-N2-[3-methyl-4-(4-methylpiperazin-1-yl)phenyl]-2,4-pyrimidinediamine]: the “IC50s against tumor cell lines” value in the assay on tumor cell lines (isolated stereoisomers) is reported as “micromolar range”.

Take `CNC(=O)COc1cccc(Nc2nc(N[C@H]3[C@@H](C(N)=O)[C@@H]4C=C[C@H]3C4)c3nc[nH]c3n2)c1` [Compound 110]: the IC50 (in assay [1] (unit printed MM); on Syk kinase) was below 10 µM throughout.
